# Results from ChEMBL document CHEMBL4414580, “(-)-Epigallocatechin 3-O-Gallate as a New Approach for the Treatment of Visceral Leishmaniasis” (J Nat Prod, 2019).
# Calls of active or inactive are those of the source. The calls are words filed in the database; no cut-off is given here.
# Legend:
# [1] = tested on: Leishmania infantum; assay: Antileishmanial activity against Leishmania infantum MHOM/MA/67/ITMAP263 promastigotes infected in BALB/c mouse peritoneal macrophages assessed as decrease in parasitic infection index incubated for 72 hrs by light microscopy; format: functional, organism-based
# [2] = tested on: Leishmania infantum; assay: Antileishmanial activity against Leishmania infantum MHOM/MA/67/ITMAP263 promastigotes infected in BALB/c mouse peritoneal macrophages assessed as decrease in parasitic infection index at 48 uM incubated for 72 hrs by light microscopy relative to control; format: functional; conditions: MHOM/MA/67/ITMAP263, 72 h
# [3] = Selectivity index, ratio of CC50 for mouse peritoneal macrophages to EC50 for Leishmania infantum MHOM/MA/67/ITMAP263 promastigotes infected in BALB/c mouse peritoneal macrophages; format: toxicity; conditions: read-out: Ratio CC50/EC50
# [4] = tested on: Leishmania infantum; assay: (§1) Antileishmanial activity against stationary phase of Leishmania infantum MHOM/MA/67/ITMAP263 promastigotes infected in orally dosed BALB/c mouse assessed as decrease in parasitic load in liver administered via gavage bid for 5 days on 7th day post infection and measured on day 30 by limiting dilution assay; format: functional
# [5] = tested on: Leishmania infantum; assay: (§2) Antileishmanial activity against stationary phase of Leishmania infantum MHOM/MA/67/ITMAP263 infected in BALB/c mouse assessed as decrease in parasitic load in liver at 12.5 mg/kg/day administered orally via gavage as bid for 5 days on 7th day post infection and measured on day 30 by limiting dilution assay relative to control; format: functional; conditions: MHOM/MA/67/ITMAP263, po
# [6] = tested on: Leishmania infantum; assay: as §2, with “25” for “12.5”; format: functional; conditions: MHOM/MA/67/ITMAP263, po
# [7] = tested on: Leishmania infantum; assay: as §2, with “MHOM/MA/67/ITMAP263 promastigotes” for “MHOM/MA/67/ITMAP263”, “50” for “12.5”; format: functional; conditions: MHOM/MA/67/ITMAP263, po
# [8] = tested on: Leishmania infantum; assay: as §1, with “in” for “in orally dosed”, “at 50 mg Sb5+/kg/day, im once daily” for “administered via gavage bid”; format: functional, organism-based
Molecule,inhibition [1],"EC50 ([1]; MHOM/MA/67/ITMAP263, 72 h)",inhibition at 48 µM [2],selectivity ratio [3],inhibition [4],"ED50 ([4]; MHOM/MA/67/ITMAP263, po)","ED90 ([4]; MHOM/MA/67/ITMAP263, po)",inhibition in vivo at 12.5 mg/kg/day [5],inhibition in vivo at 25 mg/kg/day [6],inhibition in vivo at 50 mg/kg/day [7],inhibition [8]
O=C(O[C@@H]1Cc2c(O)cc(O)cc2O[C@@H]1c1cc(O)c(O)c(O)c1)c1cc(O)c(O)c(O)c1 [EPIGALOCATECHIN GALLATE],Dose-dependent effect,2600 nM,97.7%,168,Dose-dependent effect,12.4 mg/kg/day,21.5 mg/kg/day,47.5%,93.6%,98.7%,–
Meglumine antimoniate,–,–,–,–,–,–,–,–,–,–,Active
